{
  "source": "patent US20250281488A1",
  "about": "“VCP INHIBITORS AND USES THEREOF FOR TREATMENT” (The Francis Crick Institute Limited, priority 2021, published 2025)",
  "key": {"Ub-G76V": {"test_system": "Ub-G76V", "details": "read-out: Potency of inhibition: EC50 on Ub-G76V in cell culture; cited from earlier work"}, "control motor neurons": {"test_system": "control motor neurons", "experiment": "RBP localisation by immunofluorescence in control iPSC-derived motor neurons", "assay_type": "cell-based, human", "details": "vs untreated", "procedure": "(§1) Cell culture and motor neuron differentiation. IPSCs were maintained with Essential 8 Medium media (Life Technologies) on Geltrex (Life Technologies), and passaged using EDTA (Life Technologies, 0.5 mM). IPSC cultures were kept at 37° C. and 5% carbon dioxide. IPSCs underwent differentiation into spinal cord motor neurons as described in Hall et al, 2017 [12].\n(§2) IPSC were plated to 100% confluency and then differentiated to the neuroepithelium in medium consisting of DMEM/F12 Glutamax, Neurobasal, L-Glutamine, N2 supplement, nonessential amino acids, B27 supplement, β-mercaptoethanol (all from Life Technologies) and insulin (Sigma). The cells underwent a sequential treatment with small molecules, with day 0-7: 1 μM Dorsomorphin (Millipore), 2 μM SB431542 (Tocris Bioscience), and 3.3 μM CHIR99021 (Miltenyi Biotec), day 7-14: 0.5 μM retinoic acid (Sigma) and 1 μM Purmorphamine (Sigma), day 14-18: 0.1 μM Purmorphamine. Following 18 days of neural conversion and patterning, neural precursors were terminally differentiated in 0.1 μM Compound E (Enzo Life Sciences).\n(§3) […] neuroepithelial layer was enzymatically dissociated using dispase (GIBCO, 1 mg ml−1). The neural precursors were dissociated with Accutase (Life Technologies) for final plating onto a 96 well plate (Falcon) coated with polyethylenimine (PEI) (2.2 mg/ml in 0.1M of sodium borate (Sigma) and Geltrex. Following 6 days of terminal differentiation, cells were fixed in 4% paraformaldehyde for immunolabeling.\n(§4) Inhibitor treatment. Motor neuron cultures were treated with 1 μM of ML240 (Sigma; SML1071; CAS:1346527-98-7) for 2 hours, 5 μM of DBeQ for 3 hours or 1 μM of CB-5083 for 3 hours.\n(§5) Immunofluorescence staining. Cells were fixed in 4% paraformaldehyde in PBS for 15 minutes at room temperature (RT). For permeabilization and non-specific antibody blocking, 0.3% Triton-X containing 5% bovine serum albumin (BSA) (Sigma) in PBS was added for 60 minutes. Primary antibodies were made up in 5% BSA and then applied overnight at 4° C. Primary antibodies used were SMI-32 (BioLegend; 801701; mouse; 1:1000), ChAT (Millipore; AB144P; goat; 1:100), βIII-tubulin (abcam; ab41489; chicken; 1:1000), TDP-43 (ProteinTech; 12892-1-AP; rabbit; 1:400), SFPQ (abcam; ab11825; mouse; 1:400), FUS (Santa Cruz; sc-47711; mouse; 1:200), hnRNPA1 (Cell Signaling; 8443S; rabbit; 1:500), hnRNPK (Santa Cruz; sc-28380; mouse; 1:500). A species-specific Alexa Fluor-conjugated secondary antibody (Life Technologies) at 1:1000 dilution in 5% BSA was added for 90 minutes at RT in the dark. Cells were washed once in PBS containing DAPI, 4′,6-diamidino-2-phenylindole nuclear stain (1:1000) for 10 minutes.\n(§6) Image acquisition and analysis. Images were acquired using the Opera Phenix High-Content Screening System (Perkin Elmer). Images were acquired with a 40× objective as confocal z-stacks with a z-step of 1 μm. Stacks were processed to obtain a maximum intensity projection. A minimum of 12 fields of view were taken for each well. To calculate the nuclear:cytoplasmic ratio of RNA-binding proteins (RBPs) in single cells, images were analysed using the Columbus Image Analysis System (Perkin Elmer). A DAPI mask defined the nucleus, and based on nuclear properties a trained machine learning feature selected neurons in an automated fashion. For each individual cell an average nuclear intensity of the RBP of interest was measured. For the cytoplasmic measurement, a 1.5 μm cytoplasmic region was defined around the nucleus within a cytoplasmic mask and an average intensity measured. […] A ratio of the nuclear:cytoplasmic average intensity measurements was calculated per cell. An average of each field was calculated and then averaged across the well.\n(§7) For the nuclear:neurite ratio, we implemented a semi-automated image analysis pipeline combining Ilastik, Cellprofiler and ImageJ."}, "VCP mutant motor neurons": {"test_system": "VCP mutant motor neurons", "experiment": "RBP localisation by immunofluorescence in VCP mutant iPSC-derived motor neurons", "assay_type": "cell-based, human", "procedure": "as §1, §2, §3, §4, §5, §6, §7"}, "[1]": {"test_system": "control and VCP mutant motor neurons", "experiment": "Western blot of TDP-43, FUS and SFPQ protein levels", "assay_type": "cell-based, human", "details": "1 μM ML240, 2 hours; whole cells", "procedure": "Western blot analysis. Protein levels of TDP-43, FUS and SFPQ were assessed in whole cells in control and VCP mutant motor neurons. Cells were subjected to untreated conditions or treatment of 1 μM of ML240 for 2 hours prior to protein extraction. The cells were lysed and proteins were extracted with RIPA disruption. Total protein concentration was quantified using BCA protein assay (Sigma). Equal amounts of protein samples were then loaded onto a gel and separated by SDS PAGE and transferred onto a nitrocellulose membrane. Samples were then blocked with PBS, 0.1% Tween, 5% dry milk powder at RT for one hour followed by primary antibody incubation overnight at 4° C. The following antibodies were diluted in PBS 5% BSA; TDP-43 (ProteinTech; 12892-1-AP; rabbit; 1:1000), SFPQ (Abcam; 11825; mouse; 1:250), FUS (Santa Cruz; sc-47711; mouse; 1:500), GAPDH (GeneTex; GT239; mouse; 1:10000). For detection, membranes were incubated with species-specific near infra-red fluorescent antibodies (IRDye, Licor) at RT for one hour and imaged using an Odyssey Fc Imaging System (Licor)."}, "[2]": {"test_system": "TARDBP-mutant (G298S) motor neurons", "details": "1 μM CB-5083, 3 hours, vs untreated", "quoted_text": "Immunofluorescence staining. Cells were fixed in 4% paraformaldehyde in PBS for 15 minutes at room temperature (RT). For permeabilization and non-specific antibody blocking, 0.3% Triton-X containing 5% bovine serum albumin (BSA) (Sigma) in PBS was added for 60 minutes. Primary antibodies were made up in 5% BSA and then applied overnight at 4° C. […]\nImage acquisition and analysis. […] To calculate the nuclear:cytoplasmic ratio of RNA-binding proteins (RBPs) in single cells, images were analysed using the Columbus Image Analysis System (Perkin Elmer). […] For each individual cell an average nuclear intensity of the RBP of interest was measured. For the cytoplasmic measurement, a 1.5 μm cytoplasmic region was defined around the nucleus within a cytoplasmic mask and an average intensity measured. […] A ratio of the nuclear:cytoplasmic average intensity measurements was calculated per cell. An average of each field was calculated and then averaged across the well."}, "VCP ATPase": {"biological_target": "VCP ATPase (Homo sapiens, UniProt P55072)", "sequence (P55072 whole entry)": "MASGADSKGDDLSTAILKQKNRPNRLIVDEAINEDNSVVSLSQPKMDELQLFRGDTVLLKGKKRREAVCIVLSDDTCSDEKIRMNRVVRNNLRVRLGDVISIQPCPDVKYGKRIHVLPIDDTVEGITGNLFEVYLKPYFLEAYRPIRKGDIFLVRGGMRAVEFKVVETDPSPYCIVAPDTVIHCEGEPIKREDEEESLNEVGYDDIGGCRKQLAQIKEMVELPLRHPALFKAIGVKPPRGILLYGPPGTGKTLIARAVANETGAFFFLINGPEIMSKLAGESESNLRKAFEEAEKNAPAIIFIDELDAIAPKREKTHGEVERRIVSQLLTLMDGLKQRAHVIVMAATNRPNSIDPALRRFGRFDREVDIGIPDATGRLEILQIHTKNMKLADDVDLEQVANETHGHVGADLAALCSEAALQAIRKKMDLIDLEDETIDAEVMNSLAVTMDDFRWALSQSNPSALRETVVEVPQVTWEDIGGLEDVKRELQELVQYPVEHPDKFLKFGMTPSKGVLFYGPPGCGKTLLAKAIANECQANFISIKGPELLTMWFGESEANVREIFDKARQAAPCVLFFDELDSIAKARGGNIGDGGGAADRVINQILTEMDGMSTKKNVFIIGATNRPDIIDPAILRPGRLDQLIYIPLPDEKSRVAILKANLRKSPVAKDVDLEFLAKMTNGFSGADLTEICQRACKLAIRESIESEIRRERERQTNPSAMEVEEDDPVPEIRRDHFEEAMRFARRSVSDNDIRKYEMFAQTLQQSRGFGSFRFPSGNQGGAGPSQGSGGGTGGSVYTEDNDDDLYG", "details": "read-out: Potency of inhibition: IC50 on ATPase in vitro; cited from earlier work"}, "[3]": {"details": "1 μM ML240, 2 hours, normalised to control untreated"}},
  "note": "“Also recorded” adds a separate entry of the source. Where two headings read alike, the source gives them in different places.",
  "data": [
    {"compound": "Cc1cc(OCc2nnc(SC3CCCC3)n2-c2cccnc2)ccc1-c1ccc(S(C)(=O)=O)cc1", "note": "[NMS-873]", "values": [
      {"measurement": "EC50", "setting": "Ub-G76V", "value": "400 to 700", "unit": "nM"}
    ]},
    {"compound": "COc1cccc2c(NCc3ccccc3)nc(-n3c(N)nc4ccccc43)nc12", "note": "[ML240, 2-(2-Amino-1H-benzimidazole-1-yl)-8-methoxy-N-(phenylmethyl)-4-quinazolinamine]", "values": [
      {"measurement": "FUS nuclear:cytoplasmic ratio", "setting": "control motor neurons; 1 μM ML240, 2 hours", "value": "no difference"},
      {"measurement": "FUS nuclear:neurite ratio", "setting": "control motor neurons; 1 μM ML240, 2 hours", "value": "small increase"},
      {"measurement": "SFPQ nuclear:cytoplasmic ratio", "setting": "control motor neurons; 1 μM ML240, 2 hours", "value": "no difference"},
      {"measurement": "SFPQ nuclear:neurite ratio", "setting": "control motor neurons; 1 μM ML240, 2 hours", "value": "no difference"},
      {"measurement": "TDP-43 nuclear:cytoplasmic ratio (N/C)", "setting": "control motor neurons; 1 μM ML240, 2 hours", "value": "increase"},
      {"measurement": "TDP-43 nuclear:neurite ratio (Nu/Ne)", "setting": "control motor neurons; 1 μM ML240, 2 hours", "value": "no such increase was observed; also recorded: no difference"},
      {"measurement": "hnRNPA1 nuclear:cytoplasmic ratio", "setting": "control motor neurons; 1 μM ML240, 2 hours", "value": "no difference"},
      {"measurement": "hnRNPK nuclear:cytoplasmic ratio", "setting": "control motor neurons; 1 μM ML240, 2 hours", "value": "no difference"},
      {"measurement": "hnRNPA1 nuclear:cytoplasmic ratio", "setting": "VCP mutant motor neurons; 1 μM ML240, 2 hours", "value": "no change"},
      {"measurement": "hnRNPK nuclear:cytoplasmic ratio", "setting": "VCP mutant motor neurons; 1 μM ML240, 2 hours", "value": "no change"},
      {"measurement": "FUS nuclear:cytoplasmic ratio", "setting": "VCP mutant motor neurons; [3]", "value": "robustly reversed the mislocalization; also recorded: increase"},
      {"measurement": "FUS nuclear:neurite ratio", "setting": "VCP mutant motor neurons; [3]", "value": "robustly reversed the mislocalization; also recorded: increase of the nuclear:neurite ratio to control values"},
      {"measurement": "SFPQ nuclear:neurite ratio", "setting": "VCP mutant motor neurons; [3]", "value": "significantly reversed; also recorded: increase"},
      {"measurement": "TDP-43 nuclear:cytoplasmic ratio (N/C)", "setting": "VCP mutant motor neurons; [3]", "value": "robustly reversed the mislocalization; also recorded: increased above control values"},
      {"measurement": "TDP-43 nuclear:neurite ratio (Nu/Ne)", "setting": "VCP mutant motor neurons; [3]", "value": "robustly reversed the mislocalization; also recorded: increased"},
      {"measurement": "FUS overall protein level (Western blot, normalised to GAPDH)", "setting": "[1]", "value": "did not change; also recorded: does not change"},
      {"measurement": "SFPQ overall protein level (Western blot, normalised to GAPDH)", "setting": "[1]", "value": "did not change; also recorded: does not change"},
      {"measurement": "TDP-43 overall protein level (Western blot, normalised to GAPDH)", "setting": "[1]", "value": "did not change; also recorded: does not change"}
    ]},
    {"compound": "Cc1cc2c(C(N)=O)cccc2n1-c1nc2c(c(NCc3ccccc3)n1)COCC2", "note": "[CB-5083, 1-[7,8-dihydro-4-[(phenylmethyl)amino]-5H-pyrano[4,3-d]pyrimidin-2-yl]-2-methyl-1H-indole-4-carboxamide]", "values": [
      {"measurement": "TDP-43 nuclear:cytoplasmic ratio (N/C)", "setting": "control motor neurons; 1 μM CB-5083, 3 hours", "value": "increase"},
      {"measurement": "TDP-43 nuclear:cytoplasmic ratio (N/C)", "setting": "VCP mutant motor neurons; 1 μM CB-5083, 3 hours, vs untreated", "value": "able to reverse"},
      {"measurement": "TDP-43 nuclear:cytoplasmic ratio (N/C)", "setting": "VCP mutant motor neurons; 1 μM CB-5083, 3 hours, vs untreated, listed as CB5083", "value": "increase"},
      {"measurement": "TDP-43 nuclear:cytoplasmic ratio (N/C)", "setting": "[2]", "value": "increased"},
      {"measurement": "TDP-43 nuclear:cytoplasmic ratio (N/C)", "setting": "[2]; listed as CB5083", "value": "increase"}
    ]},
    {"compound": "c1ccc(CNc2nc(NCc3ccccc3)c3ccccc3n2)cc1", "note": "[DBeQ, N2,N4-dibenzylquinazo-line-2,4-diamine]", "values": [
      {"measurement": "TDP-43 nuclear:cytoplasmic ratio (N/C)", "setting": "control motor neurons; 5 μM DBeQ, 3 hours", "value": "increased"},
      {"measurement": "TDP-43 nuclear:cytoplasmic ratio (N/C)", "setting": "control motor neurons; 5 μM DBeQ, 3 hours, listed as DBEQ", "value": "increase"},
      {"measurement": "TDP-43 nuclear:cytoplasmic ratio (N/C)", "setting": "VCP mutant motor neurons; 5 μM DBeQ, 3 hours, vs untreated", "value": "able to reverse"},
      {"measurement": "TDP-43 nuclear:cytoplasmic ratio (N/C)", "setting": "VCP mutant motor neurons; 5 μM DBeQ, 3 hours, vs untreated, listed as DBEQ", "value": "increase"},
      {"measurement": "IC50", "setting": "VCP ATPase", "value": 1500, "unit": "nM"},
      {"measurement": "EC50", "setting": "Ub-G76V", "value": 2600, "unit": "nM"}
    ]},
    {"compound": "3,4-methylenedioxy-6-nitrostyrene [Syk inhibitor III]", "values": [
      {"measurement": "IC50", "setting": "VCP ATPase", "value": 1700, "unit": "nM"},
      {"measurement": "EC50", "setting": "Ub-G76V", "value": 1600, "unit": "nM"}
    ]}
  ]
}
